Test results taken from ChEMBL document CHEMBL1133184, “SAR of 9-amino-1,2,3,4-tetrahydroacridine-based acetylcholinesterase inhibitors: synthesis, enzyme inhibitory activity, QSAR, and structure-based CoMFA of tacrine analogues” (J Med Chem, 2000).

Tests used:
[1] = biological target: T1, Acetylcholinesterase (Homo sapiens, UniProt P22303)
Description: Experimental pIC50 values for the inhibition of acetylcholinesterase

[2] = biological target: T1, Acetylcholinesterase; remark: listed apart in the source
Description: Inhibitory activity against human erythrocyte acetylcholinesterase

T1 sequence (P22303 whole entry): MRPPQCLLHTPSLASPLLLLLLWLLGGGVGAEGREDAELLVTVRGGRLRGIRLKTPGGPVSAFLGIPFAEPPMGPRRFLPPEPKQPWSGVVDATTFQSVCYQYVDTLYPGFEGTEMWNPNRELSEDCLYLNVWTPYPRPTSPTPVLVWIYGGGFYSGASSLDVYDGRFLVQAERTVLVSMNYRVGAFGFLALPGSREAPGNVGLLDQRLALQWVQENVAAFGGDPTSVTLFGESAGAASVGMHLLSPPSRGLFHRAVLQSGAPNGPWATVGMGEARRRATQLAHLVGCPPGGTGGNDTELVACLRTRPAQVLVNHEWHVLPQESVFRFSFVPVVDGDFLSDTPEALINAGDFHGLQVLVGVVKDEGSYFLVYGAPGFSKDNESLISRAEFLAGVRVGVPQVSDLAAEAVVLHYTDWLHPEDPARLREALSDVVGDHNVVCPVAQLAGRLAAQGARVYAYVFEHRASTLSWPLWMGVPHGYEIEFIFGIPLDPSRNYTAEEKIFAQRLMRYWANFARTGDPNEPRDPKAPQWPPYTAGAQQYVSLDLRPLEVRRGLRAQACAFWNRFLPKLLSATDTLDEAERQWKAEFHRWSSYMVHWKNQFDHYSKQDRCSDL

Row | SMILES | IC50 [1] [nM] | IC50 [2] [nM]
1 | Nc1c2c(nc3ccccc13)-c1ccc(F)cc1C2 | 437 | –
2 | CCCCCCCNc1c2c(nc3cc([N+](=O)[O-])ccc13)CCCC2 | 295 | 290
3 | COc1ccc2c(N)c3c(nc2c1)CCCC3 | 355 | 350
4 | O=[N+]([O-])c1ccc2nc3c(c(NCc4ccccc4)c2c1)CCCC3 | 1580 | 1600
5 | Clc1ccc2c(NCc3ccccc3)c3c(nc2c1)CCCC3 | 170 | 170
6 | Nc1c2c(nc3cc(Cl)ccc13)-c1ccccc1C2 | 6610 | –
7 | CCCCCCCNc1c2c(nc3cc(Cl)ccc13)CCCC2 | 13.2 | 13
8 | Nc1c2c(nc3ccc([N+](=O)[O-])cc13)CCCC2 | 3020 | 3000
9 | Cc1ccc2c(N)c3c(nc2c1)CCCC3 | 100 | 100
10 | CCCCCCCNc1c2c(nc3cc(C)ccc13)CCCC2 | 129 | 130
11 | Nc1ccc2nc3c(c(N)c2c1)CCCC3 | 3800 | 3800
12 | O=[N+]([O-])c1ccc2c(NCc3ccccc3)c3c(nc2c1)CCCC3 | 4790 | 4800
13 | Nc1c2c(nc3cc(F)ccc13)CCCC2 | 87.1 | 87
14 | CCCCCCCNc1c2c(nc3cc(F)ccc13)CCCC2 | 45.7 | 45
15 | CCCCCCCNc1c2c(nc3ccc(C)cc13)CCCC2 | 389 | 390
16 | Nc1c2c(nc3cc(Br)ccc13)CCCC2 | – | 66
17 | COc1cc2nc3c(c(N)c2cc1OC)CCCC3 | 5130 | 5200
18 | Nc1c2c(nc3cc(Cl)c(Cl)cc13)CCCC2 | 479 | 470
19 | CCCCCCCNc1c2c(nc3cc(OC)ccc13)CCCC2 | 468 | 460
20 | Nc1c2c(nc3ccc(Cl)cc13)CCCC2 | 550 | 550
21 | Cc1ccc2nc3c(c(N)c2c1)CCCC3 | 8130 | 8100
22 | Cc1ccc2c(NCc3ccccc3)c3c(nc2c1)CCCC3 | 741 | 750
23 | COc1cccc2c1Cc1c-2nc2ccccc2c1N | 1660 | –
24 | Cc1ccc2nc3c(c(NCc4ccccc4)c2c1)CCCC3 | 3720 | 3700
